Columns and labels:
Assay in all cases: Eurofins kinase selectivity profile against 380 other human recombinant kinases (Table S2)
Format in all cases: biochemical
[1] = target: T1, 380 human recombinant protein kinases (Homo sapiens, UniProt P53667); settings: LIMK1(h), read-out: Inhibition rate
T1 construct: purchased Eurofins (Celle Lévescault)
How it was run: (§1)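 Values come from a contract kinase-profiling service that tested the compound at multiple concentrations across 380 recombinant human kinases, as an off-target check against the MK2 activity.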

[2] = target: T2, 380 human recombinant protein kinases (Homo sapiens, UniProt P35626); settings: GRK3(h), read-out: Inhibition rate
T2 construct: purchased Eurofins (Celle Lévescault)
T2 sequence (P35626 1-688): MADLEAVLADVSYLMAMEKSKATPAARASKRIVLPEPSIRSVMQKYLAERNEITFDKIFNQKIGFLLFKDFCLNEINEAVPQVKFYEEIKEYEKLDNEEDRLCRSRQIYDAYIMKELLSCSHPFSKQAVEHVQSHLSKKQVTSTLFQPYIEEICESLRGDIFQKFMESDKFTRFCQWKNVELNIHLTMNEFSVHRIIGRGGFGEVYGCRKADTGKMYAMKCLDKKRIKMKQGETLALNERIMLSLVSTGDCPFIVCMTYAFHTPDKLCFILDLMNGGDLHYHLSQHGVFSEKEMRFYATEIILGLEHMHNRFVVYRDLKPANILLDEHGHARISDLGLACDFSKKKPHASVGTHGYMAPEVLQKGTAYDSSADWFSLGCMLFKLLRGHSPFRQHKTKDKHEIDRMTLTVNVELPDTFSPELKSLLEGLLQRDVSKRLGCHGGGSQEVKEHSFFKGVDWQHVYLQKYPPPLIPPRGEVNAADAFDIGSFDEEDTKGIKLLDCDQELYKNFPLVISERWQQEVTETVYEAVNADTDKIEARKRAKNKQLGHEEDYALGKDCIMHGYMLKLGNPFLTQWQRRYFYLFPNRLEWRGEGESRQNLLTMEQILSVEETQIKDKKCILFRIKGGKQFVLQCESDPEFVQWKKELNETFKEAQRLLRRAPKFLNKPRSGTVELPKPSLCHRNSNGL
How it was run: as §1

[3] = target: T3, 380 human recombinant protein kinases (Homo sapiens, UniProt Q9P0L2); settings: MARK1(h), read-out: Inhibition rate
T3 construct: purchased Eurofins (Celle Lévescault)
T3 sequence (Q9P0L2 whole entry): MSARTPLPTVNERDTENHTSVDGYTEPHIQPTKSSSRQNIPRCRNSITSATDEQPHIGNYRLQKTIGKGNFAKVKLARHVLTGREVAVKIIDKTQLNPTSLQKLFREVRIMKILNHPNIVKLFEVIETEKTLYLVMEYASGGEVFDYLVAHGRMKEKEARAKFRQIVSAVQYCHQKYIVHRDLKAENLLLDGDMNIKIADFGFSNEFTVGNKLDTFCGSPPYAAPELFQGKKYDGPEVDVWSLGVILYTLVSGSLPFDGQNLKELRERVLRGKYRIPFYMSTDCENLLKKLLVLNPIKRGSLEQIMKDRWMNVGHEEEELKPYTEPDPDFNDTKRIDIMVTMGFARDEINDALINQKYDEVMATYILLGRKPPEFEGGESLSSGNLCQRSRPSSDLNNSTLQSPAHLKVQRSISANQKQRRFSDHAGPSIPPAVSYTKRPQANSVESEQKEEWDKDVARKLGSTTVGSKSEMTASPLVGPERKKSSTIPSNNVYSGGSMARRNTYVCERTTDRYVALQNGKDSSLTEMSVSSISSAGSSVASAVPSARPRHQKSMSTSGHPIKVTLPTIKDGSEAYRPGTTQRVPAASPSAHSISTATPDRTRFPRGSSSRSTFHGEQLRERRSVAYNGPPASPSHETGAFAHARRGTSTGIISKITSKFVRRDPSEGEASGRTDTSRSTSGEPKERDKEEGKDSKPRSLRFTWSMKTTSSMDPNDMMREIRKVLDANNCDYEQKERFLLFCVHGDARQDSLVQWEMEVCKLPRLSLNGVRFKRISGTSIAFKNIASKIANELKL
How it was run: as §1

[4] = target: T4, 380 human recombinant protein kinases (Homo sapiens, UniProt P16234); settings: PDGFRα(h), read-out: Inhibition rate
T4 construct: purchased Eurofins (Celle Lévescault)
T4 sequence (P16234 24-1089): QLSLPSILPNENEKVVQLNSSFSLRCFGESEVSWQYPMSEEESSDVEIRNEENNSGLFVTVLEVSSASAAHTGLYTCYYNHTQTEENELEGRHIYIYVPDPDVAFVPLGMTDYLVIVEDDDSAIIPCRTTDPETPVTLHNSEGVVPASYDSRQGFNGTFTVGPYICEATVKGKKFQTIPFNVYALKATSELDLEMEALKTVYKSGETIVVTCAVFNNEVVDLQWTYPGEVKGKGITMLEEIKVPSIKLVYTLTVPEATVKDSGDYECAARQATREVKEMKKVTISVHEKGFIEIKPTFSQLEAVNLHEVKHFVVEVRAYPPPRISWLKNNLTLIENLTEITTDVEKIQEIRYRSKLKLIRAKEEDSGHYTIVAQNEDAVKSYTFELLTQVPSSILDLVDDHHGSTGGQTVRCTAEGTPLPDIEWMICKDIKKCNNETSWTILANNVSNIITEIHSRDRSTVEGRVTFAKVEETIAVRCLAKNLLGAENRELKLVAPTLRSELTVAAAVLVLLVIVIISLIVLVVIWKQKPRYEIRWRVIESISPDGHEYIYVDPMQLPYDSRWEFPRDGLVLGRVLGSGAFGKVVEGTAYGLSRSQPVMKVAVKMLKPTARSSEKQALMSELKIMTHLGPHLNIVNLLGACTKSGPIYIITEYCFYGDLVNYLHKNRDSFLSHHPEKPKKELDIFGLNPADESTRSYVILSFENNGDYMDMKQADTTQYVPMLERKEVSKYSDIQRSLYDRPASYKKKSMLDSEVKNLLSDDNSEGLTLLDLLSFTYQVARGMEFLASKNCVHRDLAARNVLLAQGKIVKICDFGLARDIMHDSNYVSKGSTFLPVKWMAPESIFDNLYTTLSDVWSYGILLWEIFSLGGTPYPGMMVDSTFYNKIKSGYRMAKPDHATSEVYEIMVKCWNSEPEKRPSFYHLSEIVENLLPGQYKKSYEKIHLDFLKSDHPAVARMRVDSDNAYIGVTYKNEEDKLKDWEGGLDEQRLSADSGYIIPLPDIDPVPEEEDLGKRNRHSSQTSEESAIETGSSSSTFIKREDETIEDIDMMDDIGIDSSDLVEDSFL
How it was run: as §1

[5] = target: T5, 380 human recombinant protein kinases (Homo sapiens, UniProt Q02156); settings: PKCε(h), read-out: Inhibition rate
T5 construct: purchased Eurofins (Celle Lévescault)
T5 sequence (Q02156 1-737): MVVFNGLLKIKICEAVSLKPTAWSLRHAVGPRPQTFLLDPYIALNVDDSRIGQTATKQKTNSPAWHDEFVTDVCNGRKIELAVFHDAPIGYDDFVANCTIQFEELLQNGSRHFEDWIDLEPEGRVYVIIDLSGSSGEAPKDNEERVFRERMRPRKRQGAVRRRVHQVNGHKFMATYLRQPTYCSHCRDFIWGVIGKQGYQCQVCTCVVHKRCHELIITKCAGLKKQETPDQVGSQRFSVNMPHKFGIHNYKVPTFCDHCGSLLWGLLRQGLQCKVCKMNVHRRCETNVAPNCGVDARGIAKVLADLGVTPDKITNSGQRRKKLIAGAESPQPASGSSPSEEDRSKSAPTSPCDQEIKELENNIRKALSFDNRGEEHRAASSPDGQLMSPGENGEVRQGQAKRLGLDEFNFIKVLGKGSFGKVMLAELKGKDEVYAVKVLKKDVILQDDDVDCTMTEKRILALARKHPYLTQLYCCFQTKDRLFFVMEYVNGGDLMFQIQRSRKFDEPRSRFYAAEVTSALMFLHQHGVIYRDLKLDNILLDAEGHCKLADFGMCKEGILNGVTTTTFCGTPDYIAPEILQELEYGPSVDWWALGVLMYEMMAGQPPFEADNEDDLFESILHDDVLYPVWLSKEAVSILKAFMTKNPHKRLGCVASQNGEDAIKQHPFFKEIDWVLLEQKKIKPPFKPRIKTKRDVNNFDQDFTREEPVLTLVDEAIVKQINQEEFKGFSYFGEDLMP
How it was run: as §1

[6] = target: T6, 380 human recombinant protein kinases (Homo sapiens, UniProt P00519, H396P); settings: Abl (H396P) (h), read-out: Inhibition rate
T6 construct: purchased Eurofins (Celle Lévescault)
How it was run: as §1

[7] = target: T7, 380 human recombinant protein kinases (Homo sapiens, UniProt P53355); settings: DAPK1(h), read-out: Inhibition rate
T7 construct: purchased Eurofins (Celle Lévescault)
T7 sequence (P53355 whole entry): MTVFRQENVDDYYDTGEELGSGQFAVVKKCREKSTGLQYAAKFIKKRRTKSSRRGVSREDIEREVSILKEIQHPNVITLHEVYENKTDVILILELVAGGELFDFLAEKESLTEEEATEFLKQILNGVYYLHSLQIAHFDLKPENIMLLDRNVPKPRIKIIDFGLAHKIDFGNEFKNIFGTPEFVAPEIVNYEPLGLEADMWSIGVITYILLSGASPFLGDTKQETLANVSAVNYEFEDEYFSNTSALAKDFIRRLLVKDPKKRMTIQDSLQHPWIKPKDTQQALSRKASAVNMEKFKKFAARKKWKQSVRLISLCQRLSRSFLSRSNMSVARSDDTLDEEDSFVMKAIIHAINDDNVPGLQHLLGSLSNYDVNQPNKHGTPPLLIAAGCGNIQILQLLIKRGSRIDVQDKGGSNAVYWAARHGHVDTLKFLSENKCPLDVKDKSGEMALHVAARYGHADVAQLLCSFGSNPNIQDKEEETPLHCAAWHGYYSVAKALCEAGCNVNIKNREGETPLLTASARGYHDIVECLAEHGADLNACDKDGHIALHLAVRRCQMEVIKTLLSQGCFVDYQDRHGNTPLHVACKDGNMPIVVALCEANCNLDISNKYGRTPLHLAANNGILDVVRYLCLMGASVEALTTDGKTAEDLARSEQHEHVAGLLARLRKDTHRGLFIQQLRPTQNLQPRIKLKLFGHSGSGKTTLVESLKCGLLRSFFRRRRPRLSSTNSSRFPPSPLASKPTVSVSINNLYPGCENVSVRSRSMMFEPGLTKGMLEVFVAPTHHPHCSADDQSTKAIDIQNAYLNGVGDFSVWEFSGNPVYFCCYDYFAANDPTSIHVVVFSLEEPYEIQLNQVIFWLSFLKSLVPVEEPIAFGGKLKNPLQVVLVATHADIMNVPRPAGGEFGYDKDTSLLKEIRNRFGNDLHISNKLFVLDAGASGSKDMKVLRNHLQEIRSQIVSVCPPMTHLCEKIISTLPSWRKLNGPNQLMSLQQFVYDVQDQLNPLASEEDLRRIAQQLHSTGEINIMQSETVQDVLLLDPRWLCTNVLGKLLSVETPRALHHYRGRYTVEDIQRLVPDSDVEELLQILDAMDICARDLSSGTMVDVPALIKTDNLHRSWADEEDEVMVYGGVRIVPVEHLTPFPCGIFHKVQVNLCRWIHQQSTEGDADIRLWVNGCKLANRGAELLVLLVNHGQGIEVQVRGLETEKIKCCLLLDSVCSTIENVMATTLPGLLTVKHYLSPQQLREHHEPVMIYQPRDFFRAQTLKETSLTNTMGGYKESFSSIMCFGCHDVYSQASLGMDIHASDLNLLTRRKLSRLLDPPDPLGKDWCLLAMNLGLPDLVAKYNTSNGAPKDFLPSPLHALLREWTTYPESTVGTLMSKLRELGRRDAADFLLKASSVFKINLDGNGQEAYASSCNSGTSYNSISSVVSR
How it was run: as §1

[8] = target: T8, 380 human recombinant protein kinases (Homo sapiens, UniProt Q9NY57); settings: STK32B(h), read-out: Inhibition rate (%)
T8 construct: purchased Eurofins (Celle Lévescault)
T8 sequence (Q9NY57 whole entry): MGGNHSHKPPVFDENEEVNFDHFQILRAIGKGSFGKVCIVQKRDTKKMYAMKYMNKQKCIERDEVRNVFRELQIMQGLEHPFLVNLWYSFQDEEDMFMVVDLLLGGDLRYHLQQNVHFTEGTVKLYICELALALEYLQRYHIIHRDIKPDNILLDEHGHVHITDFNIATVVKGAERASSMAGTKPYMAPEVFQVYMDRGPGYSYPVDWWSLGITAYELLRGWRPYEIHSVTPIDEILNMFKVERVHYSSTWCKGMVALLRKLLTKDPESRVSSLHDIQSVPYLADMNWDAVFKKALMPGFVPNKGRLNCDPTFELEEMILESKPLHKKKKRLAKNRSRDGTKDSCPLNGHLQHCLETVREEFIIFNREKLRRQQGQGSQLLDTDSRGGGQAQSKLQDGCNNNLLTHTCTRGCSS
How it was run: as §1

T1 sequence (P53667 whole entry): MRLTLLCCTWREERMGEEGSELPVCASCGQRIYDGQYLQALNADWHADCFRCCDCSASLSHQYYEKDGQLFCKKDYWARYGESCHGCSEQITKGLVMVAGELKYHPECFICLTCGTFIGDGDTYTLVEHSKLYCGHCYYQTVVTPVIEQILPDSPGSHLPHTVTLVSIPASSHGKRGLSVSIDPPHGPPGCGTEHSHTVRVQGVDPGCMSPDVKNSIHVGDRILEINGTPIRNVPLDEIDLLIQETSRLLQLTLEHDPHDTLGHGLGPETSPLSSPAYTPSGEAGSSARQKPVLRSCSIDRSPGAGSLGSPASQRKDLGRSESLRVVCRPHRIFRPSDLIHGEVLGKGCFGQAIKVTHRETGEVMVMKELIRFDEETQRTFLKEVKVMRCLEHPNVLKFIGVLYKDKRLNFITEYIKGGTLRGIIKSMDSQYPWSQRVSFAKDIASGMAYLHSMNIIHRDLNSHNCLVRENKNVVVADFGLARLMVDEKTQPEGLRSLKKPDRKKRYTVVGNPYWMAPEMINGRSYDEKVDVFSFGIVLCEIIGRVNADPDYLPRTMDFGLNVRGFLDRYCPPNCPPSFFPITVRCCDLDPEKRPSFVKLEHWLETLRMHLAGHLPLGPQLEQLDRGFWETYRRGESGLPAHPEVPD

Structure (SMILES): C=CC(=O)Nc1cc(-c2cc(-c3cc4c([nH]3)CCNC4=O)ccn2)ccc1OC(F)(F)F [compound 11]
- inhibition at 0.01 µM ([1]; 10 nM): -5%
- inhibition at 0.1 µM ([1]; 100 nM): -2%
- inhibition at 1 µM ([1]; 1000 nM): -2%
- inhibition at 0.01 µM ([2]; 10 nM): -3%
- inhibition at 0.1 µM ([2]; 100 nM): -8%
- inhibition at 1 µM ([2]; 1000 nM): -2%
- inhibition at 0.01 µM ([3]; 10 nM): -1%
- inhibition at 0.1 µM ([3]; 100 nM): -12%
- inhibition at 1 µM ([3]; 1000 nM): -4%
- inhibition at 0.01 µM ([4]; 10 nM): -5%
- inhibition at 0.1 µM ([4]; 100 nM): -3%
- inhibition at 1 µM ([4]; 1000 nM): -2%
- inhibition at 0.01 µM ([5]; 10 nM): 1%
- inhibition at 0.1 µM ([5]; 100 nM): 12%
- inhibition at 1 µM ([5]; 1000 nM): 13%
- inhibition at 0.01 µM ([6]; 10 nM): 6%
- inhibition at 0.1 µM ([6]; 100 nM): 3%
- inhibition at 1 µM ([6]; 1000 nM): 1%
- inhibition at 0.01 µM ([7]; 10 nM): 2%
- inhibition at 0.1 µM ([7]; 100 nM): 5%
- inhibition at 1 µM ([7]; 1000 nM): 12%
- inhibition at 0.01 µM ([8]; 10 nM): -9%
- inhibition at 0.1 µM ([8]; 100 nM): -5%
- inhibition at 1 µM ([8]; 1000 nM): -3%
